Experimental data from patent publication US5348946A, “Heteroanthracycline antitumor analogs” (Biochem Immunosystems, Inc., priority 1991, dated 1994).

What was measured:
Type in all cases: cell-based
[1] = test system: HI-60TB; assay: in vitro cytotoxicity evaluation, Leukemia; settings: Homo sapiens, 48 h, two days, sulforhodamine B
[2] = test system: LXFL-529L; assay: in vitro cytotoxicity evaluation, Non-Small Cell Lung Cancer; settings: Homo sapiens, 48 h, two days, sulforhodamine B
Description: (§1) These assays were carried out at the Developmental Therapeutics Program, Division of Cancer Treatment, National Cancer Institute (Bethesda, Md., USA). The method consists of incubating varying concentrations of the drug with an inoculum of cells for two days.
(§2) It should be noted that the first two parameters (GI50 and TGI) relate to antiproliferation effects while the third one (LC50) indicates true cytotoxicity.

[3] = test system: DMS 114; assay: in vitro cytotoxicity evaluation, Small Cell Lung Cancer; settings: Homo sapiens, 48 h, DMS 114, two days, sulforhodamine B
Description: BCH-255 (compound 39) was subjected to an in vitro cytotoxicity evaluation against 59 tumor cell lines to assess its potential as an anticancer drug. These assays were carried out at the Developmental Therapeutics Program, Division of Cancer Treatment, National Cancer Institute (Bethesda, Md., USA). The method consists of incubating varying concentrations of the drug with an inoculum of cells for two days. At the end of the assay, the number of viable cells is estimated with a dye, sulforhodamine B. The protocol is described in M. R. Boyd, "Status of the NCI Preclinical Antitumor Drug Discovery Screen", Principles and Practices of Oncology, 3, pp. 1-12, 1989.
There are three parameters calculated: GI50, the log molar concentration of drug required to inhibit cell growth by 50%; TGI, the log molar concentration of drug required to completely block cell growth; LC50, the log molar concentration of drug required to reduce the original cell number by 50%. It should be noted that the first two parameters (GI50 and TGI) relate to antiproliferation effects while the third one (LC50) indicates true cytotoxicity.

[4] = test system: Colo 205; assay: in vitro cytotoxicity evaluation, Colon Cancer; settings: Homo sapiens, 48 h, Colo 205, two days, sulforhodamine B
Description: as §1, §2

[5] = test system: DLD-1; assay: in vitro cytotoxicity evaluation, Colon Cancer; settings: Homo sapiens, 48 h, DLD-1, two days, sulforhodamine B
Description: as §1, §2

[6] = test system: HCT-116; assay: in vitro cytotoxicity evaluation, Colon Cancer; settings: Homo sapiens, 48 h, HCT-116, two days, sulforhodamine B
Description: as §1, §2

[7] = test system: HCT-15; assay: in vitro cytotoxicity evaluation, Colon Cancer; settings: Homo sapiens, 48 h, HCT-15, two days, sulforhodamine B
Description: as §1, §2

[8] = test system: HT 29; assay: in vitro cytotoxicity evaluation, Colon Cancer; settings: Homo sapiens, 48 h, HT 29, two days, sulforhodamine B
Description: as §1, §2

[9] = test system: KM 12; assay: in vitro cytotoxicity evaluation, Colon Cancer; settings: Homo sapiens, KM12, 48 h, KM 12, two days, sulforhodamine B
Description: as §1, §2

[10] = test system: MK20L2; assay: in vitro cytotoxicity evaluation, Colon Cancer; settings: Homo sapiens, 48 h, MK20L2, two days, sulforhodamine B
Description: as §1, §2

[11] = test system: SW-620; assay: in vitro cytotoxicity evaluation, Colon Cancer; settings: Homo sapiens, 48 h, SW-620, two days, sulforhodamine B
Description: as §1, §2

[12] = test system: F498; assay: in vitro cytotoxicity evaluation, CNS Cancer; settings: Homo sapiens, 48 h, F498, two days, sulforhodamine B
Description: as §1, §2

[13] = test system: SF-268; assay: in vitro cytotoxicity evaluation, CNS Cancer; settings: Homo sapiens, 48 h, SF-268, two days, sulforhodamine B
Description: as §1, §2

[14] = test system: SF-295; assay: in vitro cytotoxicity evaluation, CNS Cancer; settings: Homo sapiens, 48 h, SF-295, two days, sulforhodamine B
Description: as §1, §2

[15] = test system: SF-539; assay: in vitro cytotoxicity evaluation, CNS Cancer; settings: Homo sapiens, 48 h, SF-539, two days, sulforhodamine B
Description: as §1, §2

[16] = test system: SNB-19; assay: in vitro cytotoxicity evaluation, CNS Cancer; settings: Homo sapiens, 48 h, SNB-19, two days, sulforhodamine B
Description: as §1, §2

[17] = test system: SNB-75; assay: in vitro cytotoxicity evaluation, CNS Cancer; settings: Homo sapiens, 48 h, SNB-75, two days, sulforhodamine B
Description: as §1, §2

[18] = test system: SNB-78; assay: in vitro cytotoxicity evaluation, CNS Cancer; settings: Homo sapiens, 48 h, SNB-78, two days, sulforhodamine B
Description: as §1, §2

[19] = test system: U251; assay: in vitro cytotoxicity evaluation, CNS Cancer; settings: Homo sapiens, U-251, 48 h, U251, two days, sulforhodamine B
Description: as §1, §2

[20] = read-out: LOG10 G150 (GI50) (converted)
[21] = read-out: Log10 LC50 (converted)
[22] = read-out: Log10 TGI (converted)

**Q.** How did the GI50 [1, 20] turn out when `COc1c2c(c(OC)c3c(=O)c4ccccc4sc13)CS(=O)(=O)[C@@H]2O[C@H]1C[C@H](N)[C@H](O)[C@H](C)O1` [BCH-255, (1S ) 1-daunosamine-4-11-dimethoxy-5-oxo-5-H-1,3-dihydrothioxantheno [2,3-c] thiophene-2,2-dioxide] was run?
**A.** 15.8 µM

**Q.** And the CC50 [1, 21]?
**A.** 69.2 µM

**Q.** And the IC (total growth inhibition (TGI)) [1, 22]?
**A.** 33.1 µM

**Q.** And the GI50 [2, 20]?
**A.** 17 µM

**Q.** And the CC50 [2, 21]?
**A.** 57.5 µM

**Q.** And the IC (total growth inhibition (TGI)) [2, 22]?
**A.** 31.6 µM

**Q.** And the GI50 [3, 20]?
**A.** 17.8 µM

**Q.** And the IC (total growth inhibition (TGI)) [3, 22]?
**A.** 37.2 µM

**Q.** And the GI50 [4, 20]?
**A.** 17.8 µM

**Q.** And the CC50 [4, 21]?
**A.** 77.6 µM

**Q.** And the IC (total growth inhibition (TGI)) [4, 22]?
**A.** 37.2 µM

**Q.** What about the GI50 [5, 20] of the same compound?
**A.** 24.5 µM

**Q.** What about the LC50 [5, 21] of the same compound?
**A.** > 100 µM

**Q.** And the IC (total growth inhibition (TGI)) [5, 22]?
**A.** 67.6 µM

**Q.** What about the GI50 [6, 20] of the same compound?
**A.** 20.4 µM

**Q.** And the CC50 [6, 21]?
**A.** 75.9 µM

**Q.** And the IC (total growth inhibition (TGI)) [6, 22]?
**A.** 39.8 µM

**Q.** What about the GI50 [7, 20] of the same compound?
**A.** 19.1 µM

**Q.** What about the CC50 [7, 21] of the same compound?
**A.** 95.5 µM

**Q.** And the IC (total growth inhibition (TGI)) [7, 22]?
**A.** 42.7 µM

**Q.** What about the GI50 [8, 20] of the same compound?
**A.** 17.8 µM

**Q.** And the CC50 [8, 21]?
**A.** 61.7 µM

**Q.** And the IC (total growth inhibition (TGI)) [8, 22]?
**A.** 33.1 µM

**Q.** What about the GI50 [9, 20] of the same compound?
**A.** 18.2 µM

**Q.** What about the CC50 [9, 21] of the same compound?
**A.** 87.1 µM

**Q.** And the IC (total growth inhibition (TGI)) [9, 22]?
**A.** 39.8 µM

**Q.** And the GI50 [10, 20]?
**A.** 17 µM

**Q.** What about the CC50 [10, 21] of the same compound?
**A.** 57.5 µM

**Q.** What about the IC (total growth inhibition (TGI)) [10, 22] of the same compound?
**A.** 30.9 µM

**Q.** What about the GI50 [11, 20] of the same compound?
**A.** 20.4 µM

**Q.** What about the CC50 [11, 21] of the same compound?
**A.** 67.6 µM

**Q.** And the IC (total growth inhibition (TGI)) [11, 22]?
**A.** 37.2 µM

**Q.** And the GI50 [12, 20]?
**A.** 16.6 µM

**Q.** And the CC50 [12, 21]?
**A.** 58.9 µM

**Q.** And the IC (total growth inhibition (TGI)) [12, 22]?
**A.** 31.6 µM

**Q.** And the GI50 [13, 20]?
**A.** 20.9 µM

**Q.** And the CC50 [13, 21]?
**A.** > 100 µM

**Q.** What about the IC (total growth inhibition (TGI)) [13, 22] of the same compound?
**A.** 52.5 µM

**Q.** And the GI50 [14, 20]?
**A.** 16.2 µM

**Q.** And the CC50 [14, 21]?
**A.** 63.1 µM

**Q.** What about the IC (total growth inhibition (TGI)) [14, 22] of the same compound?
**A.** 32.4 µM

**Q.** And the GI50 [15, 20]?
**A.** 17.4 µM

**Q.** And the CC50 [15, 21]?
**A.** 57.5 µM

**Q.** And the IC (total growth inhibition (TGI)) [15, 22]?
**A.** 31.6 µM

**Q.** What about the GI50 [16, 20] of the same compound?
**A.** 30.9 µM

**Q.** What about the CC50 [16, 21] of the same compound?
**A.** > 100 µM

**Q.** What about the IC (total growth inhibition (TGI)) ([16]; read-out: Log10 TGI) of the same compound?
**A.** > 100 µM

**Q.** What about the GI50 [17, 20] of the same compound?
**A.** 15.8 µM

**Q.** And the CC50 [17, 21]?
**A.** 57.5 µM

**Q.** What about the IC (total growth inhibition (TGI)) [17, 22] of the same compound?
**A.** 30.2 µM

**Q.** And the GI50 [18, 20]?
**A.** 20.4 µM

**Q.** And the CC50 [18, 21]?
**A.** 91.2 µM

**Q.** What about the IC (total growth inhibition (TGI)) [18, 22] of the same compound?
**A.** 42.7 µM

**Q.** And the GI50 [19, 20]?
**A.** 17.4 µM

**Q.** And the CC50 [19, 21]?
**A.** 56.2 µM

**Q.** And the IC (total growth inhibition (TGI)) [19, 22]?
**A.** 31.6 µM
